The subject of one assay is MV-4-11. Description: Antiproliferation assay MV-4-11 (Assay 7). The following applies: MV-4-11 cells, 72 h, CellTiter-Glo; single determinations; read-out: IC50 Antiproli MV-4-11. It counts as cell-based. The method, boiled down:
(§1)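 Treated cells sat 72 h in a humidified 37 °C incubator, outer wells unused, before CellTiter-Glo reagent and a 10 min wait preceded luminescence reading; identical measurement of a parallel day 0 plate defined time zero.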
Background: Cellular ATP, detected with luciferase, serves as a proxy for viable cell number.

The test system of assay [1] is SUDHL5. The experiment in a line: Induction of caspase-3/7 activity, SUDHL5 (Assay 4). The following applies: SUDHL5 cells, 3 h, Caspase-Glo 3/7; median. It counts as cell-based. The gist of the method: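 DLBCL lines treated with compounds for 3 h at 37° C.; caspase-3/7 activity read by Caspase-Glo 3/7 luminescence. Medium-only background subtracted; EC50 fitted with bottom fixed at 1 and top set to reference compound's maximal induction.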

The next assay concerns the target BCL-2 (Homo sapiens (Human), UniProt P10415). Description: Protein-protein interaction assay BCL-2/Bad BH3 peptide (BCL-2 assay), TR-FRET. It counts as binding. The settings on record: BCL-2/Bad BH3 peptide TR-FRET; median. Background: TR-FRET usually uses a lanthanide donor and a delayed reading to cut background.
Assay [2] deals with SUDHL5. The experiment in a line: Antiproliferation assay SUDHL5 (Assay 7). It counts as cell-based. The following applies: SUDHL5 cells, 72 h, CellTiter-Glo; median; read-out: IC50 Antiproli SUDHL5 [M] (median). The gist of the method: as §1

Our source for the IC50 and EC50 values is patent US11286263B2, “Macrocyclic fluorine substituted indole derivatives” (The Broad Institute, Inc., priority 2017, dated 2022).

Several values for one entry are separate records, joined by “and”; a condition that tells them apart may be missing. Identical values can stand only once.

BCL-2, sequence (P10415 1-211): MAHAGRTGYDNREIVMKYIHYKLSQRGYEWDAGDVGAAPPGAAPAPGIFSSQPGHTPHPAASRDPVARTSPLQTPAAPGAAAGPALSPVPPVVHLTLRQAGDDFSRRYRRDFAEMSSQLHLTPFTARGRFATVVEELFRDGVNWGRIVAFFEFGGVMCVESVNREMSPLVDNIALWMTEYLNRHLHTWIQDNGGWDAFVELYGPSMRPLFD

As to `Cc1c2c(nn1C)COCCCCn1c(C(=O)O)c(CCCOc3ccc(F)c4ccccc34)c3ccc(F)c-2c31` (single isomer, unassigned; enantiomer 1) [Example 16, 4-fluoro-7-{3-[(4-fluoronaphthalen-1-yl)oxy]propyl}-2,3-dimethyl-2,10,11,12,13,15-hexahydro-pyrazolo[4′,3′:9,10][1,6]oxazacycloundecino[8,7,6-hi]indole-8-carboxylic acid (enantiomer 1)], the IC50 was 3550 nM in the assay with MV-4-11, > 20000 nM on BCL-2 and 9.3e-07 M in the assay on SUDHL5 [2]. Further, the EC50 in the assay with SUDHL5 [1] turned out to be 720 nM.
In the case of `CCc1nn(C)c2c1-c1c(F)ccc3c(CCCOc4ccc(F)c5ccccc45)c(C(=O)O)n(c13)CCCCOC2` (single isomer, unassigned; enantiomer 1) [Example 42, 3-ethyl-4-fluoro-7-{3-[(4-fluoronaphthalen-1-yl)oxy]propyl}-1-methyl-1,10,11,12,13,15-hexahydropyrazolo[4′,3′:9,10][1,6]oxazacycloundecino[8,7,6-hi]indole-8-carboxylic acid (enantiomer 1)], the figures for the IC50 with MV-4-11, on BCL-2 and in the assay with SUDHL5 [2] were 5790 nM, > 20000 nM and 2.1e-06 M, respectively. The compound further came in with an EC50 with SUDHL5 [1] of 1800 nM.
For the compound “(rac)-1-(3-((2,3-dihydro-1H-inden-4-yl)oxy)propyl)-12-ethyl-13-fluoro-11-methyl-4,5,6,7,9,11-hexahydropyrazolo[4′,3′:9,10][1]oxa[6]azacycloundecino[8,7,6-hi]indole-2-carboxylic acid [Example 30]”, the IC50 with MV-4-11 was 1770 nM and 3040 nM; against BCL-2, > 20000 nM; in the assay on SUDHL5 [2], 1.5e-06 M. The compound further yielded an EC50 on SUDHL5 [1] of 870 nM.

The IC50 is the concentration that inhibits the measured activity by half. By EC50 is commonly meant the concentration at which the effect is half-maximal.
